Laboratory results: patent US7267815B2, “Methods and reagents for the enhancement of virus transduction in the bladder epithelium” (priority 2002, dated 2007)

Tests used:
mice bladder urothelium [1] = experiment: Adenovirus formulated with different concentrations of Dodecyl-β-D-Maltoside, infectivity of bladder urothelium; type: in vivo, Balb/c Mouse; settings: for gene expression in bladder: 20 min. instillation
Protocol: • Species: Female Balb/c Mouse (Taconic Laboratory)-2/group • Study Design: To test the effect of formulating Ad-βgal virus with different concentrations of Dodecyl-β-D-Maltoside and the resultant infection of mice bladder urothelium • Dose/Route (Viral Particles #/dose):
An equal volume of 2× DDM and 2× Ad.CMV.LacZ was mixed together immediately before instillation into the bladder. […] But with 45 min. instillation, all animals with 0.05%-0.2% DDM with Ad-βgal virus had 100% gene expression in mice bladder.

[2] = test system: SD rat bladder epithelium; experiment: Adenovirus dose titration with SDS or DDM pretreatment; type: in vivo, Sprague Dawley Rat; settings: 0.1% pretreatment
Excerpt: All the animals had >90% in Ad-βgal gene expression in mice bladder. Adenovirus Dose Titration with Different Chemical Agents Pretreatment on SD Rat Bladder Epithelium • Species: Female Sprague Dawley Rat (Taconic Laboratory)—2/group • Study Design: To test the virus infectivity of rat bladder epithelium with different doses of Adenovirus following the pretreatment with SDS or DDM. This study also explored relationship between bladder volume and residual of SDS or DDM for adenovirus infectivity. • Dose/Route:
Rat bladders infected with 4×10^10 vp adenovirus achieved >90% Ad-βgal gene expression levels whereas rat bladders infected with 4×10^9 vp adenovirus had Ad-βgal gene expression levels range from 30% to 50%. […] Efficacy of Dodecyl-β-D-Maltoside as a Pretreatment Agent Prior to Adenovirus Infection of Mice Bladder Urothelium • Species: Female Balb/c Mouse (Taconic Laboratory)—2/group • Study Design: To test DDM from two different suppliers as pretreatment agents to enhance the adenovirus infection of mice bladder urothelium in a large group of animals. • Dose/Route: […]

mice bladder urothelium [3] = experiment: DDM from two suppliers as pretreatment agent prior to adenovirus infection; type: in vivo, Balb/c Mouse; settings: two different lots of DDM, pretreatment QQ5 minQ, 1×10^10 vp/dose for 15 min
Excerpt: Rat bladders infected with 4×10^10 vp adenovirus achieved >90% Ad-βgal gene expression levels whereas rat bladders infected with 4×10^9 vp adenovirus had Ad-βgal gene expression levels range from 30% to 50%. […] Efficacy of Dodecyl-β-D-Maltoside as a Pretreatment Agent Prior to Adenovirus Infection of Mice Bladder Urothelium • Species: Female Balb/c Mouse (Taconic Laboratory)—2/group • Study Design: To test DDM from two different suppliers as pretreatment agents to enhance the adenovirus infection of mice bladder urothelium in a large group of animals. • Dose/Route:
In each case, >90% Ad-βgal expression was achieved. Therefore, DDM from either manufacturer is a good candidate for a chemical enhancer for adenovirus infection in mice bladder. Efficacy of Dodecyl-β-D-Maltoside as Chemical Enhancer Prior to Adenovirus Infection of SW780+ Luc Orthotopic Bladder Tumor Model in Mice • Species: Female NCR nu/nu Mouse (Taconic Laboratory)-2/group • Study Design: To show DDM pretreatments enhance Ad.Lac Z infectivity in mice bladder urothelium. To further confirm the enhancer effect on orthotopic tumors, two mice bearing orthotopic SW780 bladder tumors were pretreated with or without DDM (QQ5 minQ) followed by 15 min Ad.Lac Z instillation. The Ad.Lac Z gene expression levels were checked in these tumor cells 4 days post Ad.Lac Z infection. • Dose/Route: […]

adenovirus = experiment: Study #3: compatibility of adenovirus with selected enhancers (plaque assay); type: physicochemical
Protocol: For this study, each sample was incubated at 37° C. or 25° C. before the plaque assay started.

adenovirus (Ad-LacZ) = experiment: Study #5: adenovirus stability after incubation with 0.1% SDS or 0.1% DDM (plaque assay); type: physicochemical; settings: 0.1% solution, one hour at 25° C. or 37° C.
Protocol: In this study, adenovirus (Ad-LacZ) preparations (1.0×10^12 vp/ml) were mixed with solutions of SDS or DDM to obtain a mixture of adenovirus and each of these surfactants. […] These samples were incubated at 25° C. or 37° C. for one hour before freezing. They were sent to assay services for plaque assay analysis.

bladder epithelium = experiment: Transduction efficacy of exemplary pretreatment agents (summary Table 7); type: in vivo, mouse; settings: pretreatment agent

CCCCCCCCCCCCO[C@@H]1O[C@H](CO)[C@@H](O[C@H]2O[C@H](CO)[C@@H](O)[C@H](O)[C@H]2O)[C@H](O)[C@H]1O [n-dodecyl β-D-maltoside, n-dodecyl-β-D-maltoside]
gene expression in bladder (mice bladder urothelium [1]; 0.05% DDM formulated with Ad-βgal virus): about 40%
gene expression in mice bladder (mice bladder urothelium [1]; 0.05%-0.2% DDM with Ad-βgal virus, 45 min. instillation): 100%
gene expression in bladder (mice bladder urothelium [1]; 0.1% DDM formulated with Ad-βgal virus): about 80%
gene transduction (in words) (mice bladder urothelium [1]; 10 min. virus instillation after DDM pretreatment): gene transduction could be achieved
transduction rate (in words) (mice bladder urothelium [1]; DDM formulated with virus, 10 min. instillation): did not achieve an acceptable transduction rate
removal of GAG layer of bladder epithelium [2]: effective to remove GAG layer of bladder epithelium
Ad-βgal expression (mice bladder urothelium [3]): > 90%
Average pfu/mL (adenovirus; 25° C., 2 hours): 1.32E+10 pfu/mL
Ratio vp/pfu (adenovirus; 25° C., 2 hours): 16 vp/pfu
Average pfu/mL (adenovirus; 37° C., 1 hour): 1.36E+10 pfu/mL
Ratio vp/pfu (adenovirus; 37° C., 1 hour): 16 vp/pfu
compatibility with the adenovirus (in words) (adenovirus; under the experimental conditions of Table 5): compatible with the adenovirus
effect on adenovirus (in words) (adenovirus (Ad-LacZ)): no adverse effects on adenovirus
Transduction Efficacy (bladder epithelium): ++++ (“++++” means >75% transduction efficacy)
